Values of other authors, collected in patent US6485514B1 (priority 1997, dated 2002).
Read-outs that look alike come from different tables or passages of the source.

What was measured:
[1] = tested on: human colon cancer xenografts
[2] = administered intravenously, clinical trials
[3] = cremaphor vehicle, 6-hour IV infusion
[4] = tested on: drug-refractory ovarian cancer; details: in vivo
[5] = patients

CC[C@@]1(O)C(=O)OCc2c1cc1n(c2=O)Cc2cc3c(N)cccc3nc2-1 [9AC, 9-Amino-20(S)-Camptothecin]
anticancer activity against human colon cancer xenografts [1]: high anticancer activity

CC[C@@]1(O)C(=O)OCc2c1cc1n(c2=O)Cc2cc3cc4c(cc3nc2-1)OCO4 [10,11 MD, 10,11-Methylendioxy-20(S)-Camptothecin]
anticancer activity against human colon cancer xenografts [1]: high anticancer activity

CC[C@@](O)(C(=O)[O-])c1cc2n(c(=O)c1CO)Cc1cc3ccccc3nc1-2.[Na+] [CPT Na+, Camptothecin Sodium Salt]
clinical outcome (toxicity and potency) ([2]; listed as sodium salt of CPT): high toxicity and low potency | clinical outcome (toxicity and potency) ([2]; Sodium Salt): ineffectiveness and the toxicity

CC(=O)O[C@H]1C(=O)[C@@]2(C)[C@H]([C@H](OC(=O)c3ccccc3)[C@]3(O)C[C@H](OC(=O)[C@H](O)[C@@H](NC(=O)c4ccccc4)c4ccccc4)C(C)=C1C3(C)C)[C@]1(OC(C)=O)CO[C@@H]1C[C@@H]2O [taxol]
dose-limiting toxicity [3]: neurotoxicity and leucopenia were dose-limiting | activity against drug-refractory ovarian cancer [4]: active agent | maximum tolerated dose ([5]; 6-hour IV infusion every 21 days): 275 mg/m^2 | dose-limiting toxicity ([5]; 6-hour IV infusion): Myelosuppression was dose-limiting
